# The PolyMetriX glass transition set
# ± gives the standard deviation of the reports.
row,glass transition temperature [°C],SMILES
1,252.00,*c1ccc(Oc2ccc(C(=O)c3ccc(Oc4ccc(-c5c6c(c(*)c7ccccc57)C(=O)N(c5cccc(C(F)(F)F)c5)C6=O)cc4)cc3)cc2)cc1 (repeat unit)
2,234.00,*c1ccc2c(c1)C(=O)N(c1ccc(Oc3ccc(C(c4ccc(Oc5ccc(N6C(=O)c7ccc(C(*)(C(F)(F)F)C(F)(F)F)cc7C6=O)cc5C(F)(F)F)cc4)(C(F)(F)F)C(F)(F)F)cc3)c(C(F)(F)F)c1)C2=O (repeat unit)
3,320.00,*C1C(*)C2CC1C(C(=O)OCC1CC3CCC1C3)C2C(=O)OCC1CC2CCC1C2 (repeat unit)
4,205.00,*c1ccc(OCCN(CC)c2ccc(-c3ccc(C(=C(C#N)C#N)c4ccc(-c5ccc(N(CC)CC)cc5)s4)s3)cc2)c(-c2cc(-c3ccccc3)c3cc(Oc4ccc5nc(*)cc(-c6ccccc6)c5c4)ccc3n2)c1 (repeat unit)
5,119.00,*Oc1ccc(Oc2cccc(C(=O)Oc3ccc(OC(=O)c4cccc(*)c4)cc3)c2)cc1 (repeat unit)
6,236.1,*Nc1ccc(C(=O)c2ccc(Nc3ccc4c(c3)c3cc(*)ccc3n4CC(CC)CCCC)cc2)cc1 (repeat unit)
7,180.00,*CCCNC(=O)c1ccc(C(=O)N*)cc1 (repeat unit)
8,273.00,*c1ccc(OC(=O)c2cccc(C(=O)Oc3ccc(C4(*)OC(=O)c5ccccc54)cc3C)c2)c(C)c1 (repeat unit)
9,177.00,*c1cccc(Oc2cccc(Oc3cccc(N4C(=O)C5C6C=CC(C7C(=O)N(*)C(=O)C67)C5C4=O)c3)c2)c1 (repeat unit)
10,16.00,*CCCCCC(c1ccc(O)cc1)C(*)c1ccc(O)cc1C (repeat unit)
11,111.50,*C(=O)c1ccc2c(c1)C(=O)N(c1ccc(-c3c(-c4ccc(-c5ccccc5)cc4)cc(-c4ccc(OCCCCCCOc5ccc(-c6cc(-c7ccc(-c8ccccc8)cc7)c(-c7ccc(N8C(=O)c9ccc(*)cc9C8=O)cc7)c(-c7ccc(-c8ccccc8)cc7)c6)cc5)cc4)cc3-c3ccc(-c4ccccc4)cc3)cc1)C2=O (repeat unit)
12,124.30,*c1nnc(-c2sc(-c3nnc(-c4cc(OCCCCCCCC)c(*)cc4OCCCCCCCC)o3)cc2CCCCCCCC)o1 (repeat unit)
13,12.50,*Oc1ccc(CC(NC(=O)CCc2ccc(OC(=O)CCCCCCCCC(*)=O)cc2)C(=O)OCCCCCCCCCCCC)cc1 (repeat unit)
14,230.00,*Oc1ccc(S(=O)(=O)c2ccc(Oc3ccc(C4CCCC(C(C)c5ccc(*)cc5)C4)cc3)cc2)cc1 (repeat unit)
15,98.00,*OC(C)COC(=O)c1ccc(C(*)=O)cc1 (repeat unit)
16,68.00,*c1ccc(OCCCCCCCCCCCOC(=O)c2cccc(C(=O)OCCCCCCCCCCCOc3ccc(-c4nnc(*)s4)cc3)c2)cc1 (repeat unit)
17,104.00,*c1ccc(C(=O)OCCCCCCOc2ccc(/C=C3\CCCC/C(=C\c4ccc(OCCCCCCOC(=O)c5ccc(-c6nnc(*)o6)cc5)cc4)C3=O)cc2)cc1 (repeat unit)

row,glass transition temperature [°C],SMILES
1,355.00,*c1ccc(-c2ccc(-c3cc(-c4ccc(Oc5ccc(Oc6ccccc6)cc5)cc4)c4cc(-c5ccc6nc(*)cc(-c7ccc(Oc8ccc(Oc9ccccc9)cc8)cc7)c6c5)ccc4n3)cc2)cc1 (repeat unit)
2,195.00,*C(=O)c1ccc(Oc2ccc(C3(c4ccc(Oc5ccc(*)s5)cc4)c4ccccc4-c4ccccc43)cc2)cc1 (repeat unit)
3,130.00,*Nc1ccc(NC(=O)CCCCCCCC(*)=O)cc1 (repeat unit)
4,37.73,*Oc1ccc(CC(NC(=O)CCc2ccc(OC(=O)CCCCC(*)=O)cc2)C(=O)OCCCCCC)cc1 (repeat unit)
5,221.00,*Oc1ccccc1S(=O)(=O)c1ccc(*)cc1 (repeat unit)
6,120.1,*CCOC(=O)C1CCC(C(=O)OCCOc2ccc(C3(c4ccc(O*)cc4)c4ccccc4-c4ccccc43)cc2)CC1 (repeat unit)
7,104.00,*CCCCCCCCCN1C(=O)c2ccc(-c3ccc(-c4ccc5c(c4)C(=O)N(*)C5=O)cc3)cc2C1=O (repeat unit)
8,324.00,*C(=O)Nc1ccc(Cc2ccc(NC(=O)c3ccc4c(c3)C(=O)N(c3ccc(S(=O)(=O)c5ccc(N6C(=O)c7ccc(*)cc7C6=O)cc5)cc3)C4=O)cc2)cc1 (repeat unit)
9,101.00,*Oc1ccc(C(CCC)(CCC)c2ccc(OC(*)=O)c(C)c2)cc1C (repeat unit)
10,158.00,*CC(*)(CC(=O)OC(C)C)C(=O)OC12CC3CC(C)(CC(C)(C3)C1)C2 (repeat unit)
11,245.00,*C(=O)c1ccc(Oc2ccc(S(=O)(=O)c3ccc(Oc4ccc(C(=O)c5ccc6c(c5)C(=O)N(c5ccc(Cc7ccc(N8C(=O)c9ccc(*)cc9C8=O)cc7)cc5)C6=O)cc4)cc3)cc2)cc1 (repeat unit)
12,34.00,*c1ccc(-c2ccc3c(c2)C(CCCCCCCC)(CCCCCCCC)c2cc(*)ccc2-3)c(F)c1 (repeat unit)
13,118.00,*CC(F)(F)C1(F)CC(C(O)(C(F)(F)F)C(F)(F)F)CC1* (repeat unit)
14,106.00,*Cc1cccc(COC(=O)Nc2ccc(Cc3ccc(NC(=O)O*)cc3)cc2)c1 (repeat unit)
15,152.00,*Oc1ccc(CCNC(=O)c2cccc(C(*)=O)c2)cc1 (repeat unit)
16,254.8,*c1ccc(Sc2ccc3c(c2)Sc2ccc(Sc4ccc(-n5c(=O)c6cc7c(=O)n(*)c(=O)c7cc6c5=O)cc4)cc2S3)cc1 (repeat unit)
17,177.00,*Oc1ccc2ccc(Oc3ccc(C(=O)Nc4ccc(Oc5ccc(C(C)(c6ccccc6)c6ccc(Oc7ccc(NC(=O)c8ccc(*)cc8)cc7)cc6)cc5)cc4)cc3)cc2c1 (repeat unit)

row,SMILES,glass transition temperature [°C]
1,*OP(=O)(Oc1ccc(-c2ccc(*)cc2)cc1)OC1CCCCC1 (repeat unit),116.00
2,*CC(*)C#N (repeat unit) [Poly(acrylonitrile)],110 ± 12
3,*OC(COC(*)=O)COc1ccccc1 (repeat unit),45.00
4,*CC#CC#CCOc1cccc(C(=O)OCCN(CCOC(=O)c2cccc(O*)c2)c2ccc(/N=N/c3ccc(C#N)cc3)cc2)c1 (repeat unit),50.00
5,*/C=C(/*)c1ccccc1[Si](C)(C)C (repeat unit),190.00
6,*CC(C)CNC(=O)O* (repeat unit),40.00
7,*CCCCCCCCCCOc1ccc(/C=C/c2ccc(OCCCCCCCCCCOP(=O)(O*)OCCCCCCCCCCOc3ccc(/N=N/c4ccc(OC)cc4)cc3)cc2)cc1 (repeat unit),58.00
8,*C1C(=O)N(C(C)CC)C(=O)C1* (repeat unit),205.00
9,*CC(*)CCCCCCCC (repeat unit),-35.00
10,*C(=O)c1ccc(N(*)C)cc1 (repeat unit),197.00
11,*CCC(C)S* (repeat unit),-59.00
12,*C1CCCCC1S(*)(=O)=O (repeat unit),77.00
